US11136291B2, “Antifungal compounds and uses thereof” (Dana-Farber Cancer Institute, Inc., priority 2016, dated 2021)
In brackets after ≈: the same amount, converted by molar mass.

Legend:
Candida glabrata DSY562 = test: Broth dilution MIC; details: Nakaseomyces glabratus
Description: (§1) Antifungal susceptibility testing was carried out using broth dilution assays which examined effects of two-fold dilutions of compounds on cellular growth. The minimum inhibitory concentration (MIC) was defined as the drug concentration at which the optical density was equal to or decreased more than 50% from that of the drug-free culture.

Candida glabrata DSY565 = test: Broth dilution MIC; details: Nakaseomyces glabratus
Description: as §1

Candida albicans SC5314 = test: Broth dilution MIC
Description: as §1

Candida albicans DSY2621 = test: Broth dilution MIC
Description: as §1

Candida krusei DSY471 = test: Broth dilution MIC; details: Pichia kudriavzevii, ATCC6258
Description: as §1

[1] = tested on: Candida tropicalis DSY472; test: Broth dilution MIC; details: ATCC75
Description: as §1

[2] = tested on: Candida parapsilosis DSY473; test: Broth dilution MIC; details: ATCC22019
Description: as §1

[3] = tested on: Saccharomyces cerevisiae DSY2094; test: Broth dilution MIC
Description: as §1

[4] = tested on: C. glabrata adherence to CHO-Lec2 cells; test: Yeast adherence to epithelial CHO-Lec2 cells; details: PDR1^L280F mutant, 30 μM iKIX1 or 40 μM ketoconazole
[5] = tested on: C. glabrata PDR1 wild-type or PDR1^L280F strains; test: Galleria mellonella survival assay; type: in vivo; details: […]
C. glabrata [6] = test: Mouse disseminated fungal burden model; type: in vivo; details: mouse, in vivo
C. glabrata [7] = type: in vivo, mouse; details: single agent 100 mg/kg/day i.p.
[8] = tested on: PDRE-dependent luciferase gene transcription; type: cell-based, Saccharomyces cerevisiae; details: 40 μM ketoconazole; for Luciferase activity (5 μM + keto) (% DMSO + keto): 5 μM compound; for Luciferase activity (50 μM + keto) (% DMSO + keto): 50 μM compound
[9] = tested on: CgCDR1 transcription (CgPdr1 target); test: Transcription assay, quantitative real-time PCR of CgPdr1 target genes; type: cell-based, Candida glabrata
CgGal11A KIX domain = biological target: T1, CgGal11A KIX domain (Candida glabrata, UniProt Q6FRS9); test: Fluorescence polarization (FP) binding/competition assay, CgPdr1 AD30 with CgGal11A KIX; details: compared with iKIX1
T1 construct: other: compared with iKIX1; other: GST-CgGal11A KIX 3 μM, 30 nM FITC-CgPdr1 AD30; Kd of CgPdr1 AD30 for CgGal11A KIX domain; other: FP titration, 30 nM FITC-CgPdr1 AD30; Kd of the CgPdr1 AD for the CgGal11A KIX domain; apparent Ki; fused on or other part: N-terminal His6-GST tag
T1 sequence (Q6FRS9 whole entry, looked up, the tested form may be a part): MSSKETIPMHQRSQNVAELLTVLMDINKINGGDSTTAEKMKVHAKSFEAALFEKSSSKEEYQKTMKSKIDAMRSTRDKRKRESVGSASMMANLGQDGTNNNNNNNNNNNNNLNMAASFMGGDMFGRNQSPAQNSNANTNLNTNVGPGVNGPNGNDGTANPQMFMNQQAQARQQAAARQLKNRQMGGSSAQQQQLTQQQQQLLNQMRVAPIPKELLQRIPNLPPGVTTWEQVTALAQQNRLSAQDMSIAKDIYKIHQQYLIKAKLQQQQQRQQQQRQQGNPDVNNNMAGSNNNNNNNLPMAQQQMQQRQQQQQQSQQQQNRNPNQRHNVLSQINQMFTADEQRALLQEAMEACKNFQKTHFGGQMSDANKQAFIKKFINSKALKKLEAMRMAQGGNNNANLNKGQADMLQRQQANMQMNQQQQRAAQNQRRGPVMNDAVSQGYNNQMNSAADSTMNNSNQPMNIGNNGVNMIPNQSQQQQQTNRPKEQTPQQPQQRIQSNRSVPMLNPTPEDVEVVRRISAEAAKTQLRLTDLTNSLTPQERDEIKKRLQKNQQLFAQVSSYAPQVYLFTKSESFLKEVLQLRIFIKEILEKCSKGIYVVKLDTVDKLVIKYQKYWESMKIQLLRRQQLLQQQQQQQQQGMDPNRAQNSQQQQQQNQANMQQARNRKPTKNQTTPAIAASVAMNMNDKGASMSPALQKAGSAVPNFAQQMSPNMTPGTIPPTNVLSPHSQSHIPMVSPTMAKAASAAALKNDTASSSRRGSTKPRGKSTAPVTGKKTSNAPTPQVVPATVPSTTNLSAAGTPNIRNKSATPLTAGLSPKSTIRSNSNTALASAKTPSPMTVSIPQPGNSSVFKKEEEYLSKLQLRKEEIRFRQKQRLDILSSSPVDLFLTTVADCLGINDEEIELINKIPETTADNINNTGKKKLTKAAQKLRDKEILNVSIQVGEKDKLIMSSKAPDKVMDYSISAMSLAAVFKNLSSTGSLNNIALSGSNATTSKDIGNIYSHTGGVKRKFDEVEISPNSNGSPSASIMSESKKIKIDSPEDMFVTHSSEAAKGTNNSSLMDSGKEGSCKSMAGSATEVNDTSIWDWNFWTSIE
Description: A fluorescein-tagged 30 amino acid C-terminal activation domain of CgPdr1 (FITC-[…] (SEQ ID NO: 1)) CgPdr1 AD30 was purchased as a synthetic peptide from Pepide2.0. The CgGal11A KIX domain was expressed as a His6-GST fusion protein and purified by affinity chromatography with Ni-NTA resin (Qiagen) and size exclusion chromatography (Sephadex 75, Pharmacia). […] For small molecule screening, fluorescein-CgPdr1 AD30 was held at a concentration of 30 nM and the GST-tagged CgGal11A KIX was at a concentration of 1 μM (above the Kd). The screen was carried out in duplicate and the volume in each well was 25 μL.
To measure the dissociation constant (Kd) of CgPdr1 AD30, FITC labeled CgPdr1 AD30 was held at a concentration of 30 nM and the GST-tagged CgGal11A KIX was prepared with concentrations ranging from 0 to 300 μM. The IC50 for iKIX-1 binding was measured with GST-tagged CgGal11A KIX held at a constant 3 μM concentration, iKIX-1 was titrated from 0 to 1000 μM and 30 nM FITC-labeled CgPdr1 AD30 was added subsequently with an HP D300 digital dispenser (Tecan Group. Maennerdorf, Switzerland). All experiments were carried out in duplicate and the s.d. is reported at each point on the plot.
The FP titration curve of the CgPdr1 AD30 was fitted to GraphPad Prisms (La Jolla, Calif., USA) One site-total binding equation (equation 1). […]

[10] = tested on: C. glabrata CgPDR1 wild-type and gain-of-function mutant strains; test: Spot plating on gradient plates with azole; type: cell-based, Candida glabrata

Row | SMILES | MIC (Candida glabrata DSY562) [µM] | MIC (Candida glabrata DSY565) [µM] | MIC (Candida albicans SC5314) [µM] | MIC (Candida albicans DSY2621) [µM] | MIC (Candida krusei DSY471) [µM] | MIC [1] [µM] | MIC [2] [µM] | MIC [3] [µM] | Luciferase activity (5 μM + keto) (% DMSO + keto) [8] [% DMSO + keto] | Luciferase activity (50 μM + keto) (% DMSO + keto) [8] [% DMSO + keto] | other results
1 | N#CCC(=O)NNC(=S)Nc1cc(Cl)cc(Cl)c1 [Compound A16] | 3.12 (≈ 0.947 µg/mL) | 6.25 (≈ 1.89 µg/mL) | 6.25 (≈ 1.89 µg/mL) | 6.25 (≈ 1.89 µg/mL) | 3.25 (≈ 0.985 µg/mL) | 3.25 (≈ 0.985 µg/mL) | 12.5 (≈ 3.79 µg/mL) | 3.12 (≈ 0.947 µg/mL) | – | – | –
2 | CC(=O)N1CCN(c2ccc(OCC3COC(Cn4ccnc4)(c4ccc(Cl)cc4Cl)O3)cc2)CC1 (stereo not drawn) [ketoconazole, reference compound] | – | – | – | – | – | – | – | – | – | – | relative adherence to epithelial cells [4]: reduce adherence; relative adherence to epithelial cells ([4]; listed as Ketoconazole): reduced relative adherence to levels comparable to a PDR1 wild-type strain
3 | OC(Cn1cncn1)(Cn1cncn1)c1ccc(F)cc1F [fluconazole, reference compound] | – | – | – | – | – | – | – | – | – | – | survival of G. mellonella larvae ([5]; fluconazole 50 mg/kg alone): sensitive to fluconazole alone; survival of G. mellonella larvae ([5]; single agent (fluconazole 50 mg/kg or iKIX1 25 mg/kg) vs vehicle): did not significantly increase survival; tissue fungal burden (C. glabrata [6]; 25 mg/kg): poorly reduced tissue burden; tissue fungal burden in the kidney and spleen (C. glabrata [6]; 100 mg/kg): significantly reduced tissue fungal burden; fungal load in bladder and kidney (C. glabrata [7]): significantly reduces fungal burden in the bladder and kidney
4 | N#CC1(C(=O)NNC(=S)Nc2ccc(Cl)c(Cl)c2)CC1 [Compound A18, 2-(1-Cyanocyclopropanecarbonyl)-N-(3,4-dichlorophenyl)hydrazinecarbothioamide] | 6.25 (≈ 2.06 µg/mL) | 12.5 (≈ 4.12 µg/mL) | 6.25 (≈ 2.06 µg/mL) | 6.25 (≈ 2.06 µg/mL) | 6.25 (≈ 2.06 µg/mL) | 12.5 (≈ 4.12 µg/mL) | 25 (≈ 8.23 µg/mL) | 12.5 (≈ 4.12 µg/mL) | – | – | –
5 | N#CCC(=O)NNC(=S)Nc1cc(Cl)cc(C(F)(F)F)c1 [Compound A52-8] | 3.12 (≈ 1.05 µg/mL) | 6.25 (≈ 2.1 µg/mL) | 3.12 (≈ 1.05 µg/mL) | 3.12 (≈ 1.05 µg/mL) | 3.12 (≈ 1.05 µg/mL) | 3.12 (≈ 1.05 µg/mL) | 12.5 (≈ 4.21 µg/mL) | 3.12 (≈ 1.05 µg/mL) | – | – | –
6 | N#CCC(=O)NNC(=S)Nc1ccc(Cl)c(F)c1 [Compound A03, N-(4-Chloro-3-fluorophenyl)-2-(2-cyanoacetyl)hydrazinecarbothoamide] | 12.5 (≈ 3.58 µg/mL) | 25 (≈ 7.17 µg/mL) | 25 (≈ 7.17 µg/mL) | 25 (≈ 7.17 µg/mL) | 12.5 (≈ 3.58 µg/mL) | 12.5 (≈ 3.58 µg/mL) | 50 (≈ 14.3 µg/mL) | 12.5 (≈ 3.58 µg/mL) | – | – | –
7 | N#CC1(C(=O)NNC(=S)Nc2ccc(Cl)c(Cl)c2)CC1 [drawing 45] | – | – | – | – | – | – | – | – | 62 | 25 | CgCDR1 qRT-PCR (30 μM in PDR1 WT) (% DMSO + keto) ([9]; 30 μM compound, PDR1 WT, ketoconazole induced): 5 % DMSO + keto
8 | N#CCC(=O)NNC(=S)Nc1cc(Cl)cc(Cl)c1 [drawing 48] | – | – | – | – | – | – | – | – | 45 | 25 | –
9 | N#CC1(C(=O)NNC(=S)Nc2ccc(Cl)c(Cl)c2)CCCCC1 [drawing 51] | – | – | – | – | – | – | – | – | 53 | 14 | –
10 | COc1cc(NC(=S)NNC(=O)CC#N)cc(Cl)c1Cl | – | – | – | – | – | – | – | – | 52 | 26 | –
11 | N#CC(C(=O)NNC(=S)Nc1ccc(Cl)c(Cl)c1)c1ccccc1 (stereo not drawn) | – | – | – | – | – | – | – | – | 86 | 38 | –
12 | N#CCC(=O)NNC(=S)Nc1cc(Cl)cc(C(F)(F)F)c1 [drawing 49] | – | – | – | – | – | – | – | – | 77 | 28 | –
13 | N#CCC(=O)NNC(=S)Nc1ccc(Cl)c(F)c1 [drawing 46] | – | – | – | – | – | – | – | – | 54 | 30 | –
14 | N#CCC(=O)NNC(=S)Nc1ccc(C(F)(F)F)c(Cl)c1 [drawing 47] | – | – | – | – | – | – | – | – | 40 | 21 | –
15 | N#CCC(=O)NNC(=S)Nc1ccc(C(F)(F)F)c(Cl)c1 [Compound A07, N-(3-Chloro-4-(trifluoromethyl)phenyl)-2-(2-cyanoacetyl) hydrazinecarbothioamide] | 3.12 (≈ 1.05 µg/mL) | 3.12 (≈ 1.05 µg/mL) | 3.25 (≈ 1.09 µg/mL) | 3.25 (≈ 1.09 µg/mL) | 6.25 (≈ 2.1 µg/mL) | 3.25 (≈ 1.09 µg/mL) | 6.25 (≈ 2.1 µg/mL) | 3.12 (≈ 1.05 µg/mL) | – | – | –
16 | N#CCC(=O)NNC(=S)NCc1ccccc1 [Compound A02, reference compound] | > 100 | > 100 | > 100 | > 100 | > 100 | > 100 | > 100 | > 100 | – | – | IC50 in the FP assay (in words) (CgGal11A KIX domain): increases the IC50; ketoconazole-induced luciferase activity (in words) [8]: abolishes activity; ketoconazole-induced CgPdr1 target gene (CgCDR1) transcription (in words) ([9]; CgPDR1 wild-type strain (SFY114), pre-treatment then 40 μM ketoconazole): abolishes activity; synergistic C. glabrata cell growth inhibition with azole antifungal agents [10]: abolishes activity
17 | N#CC1(C(=O)NNC(=S)Nc2ccc(Cl)c(Cl)c2)CCCCC1 [DFCI-1] | 6.25 (≈ 2.32 µg/mL) | 6.25 (≈ 2.32 µg/mL) | 6.25 (≈ 2.32 µg/mL) | 12.5 (≈ 4.64 µg/mL) | 3.12 (≈ 1.16 µg/mL) | 6.25 (≈ 2.32 µg/mL) | 12.5 (≈ 4.64 µg/mL) | 6.25 (≈ 2.32 µg/mL) | – | – | –
